According to paper PMC7307922 (Journal of Medicinal Chemistry, 2020):

Assays:
mFFA3 = biological target: T1, mFFA3 (Mus musculus, UniProt Q3UFD7); assay: cAMP assay, mFFA3; assay type: cell-based; set-up: expressed in transfected cells; host or cells: HEK293 Flp-In T-REx, doxycycline-induced; details: for loss of potency from human to rodent species: hFFA3 vs rFFA3 and mFFA3, cAMP
T1 sequence (Q3UFD7 1-319): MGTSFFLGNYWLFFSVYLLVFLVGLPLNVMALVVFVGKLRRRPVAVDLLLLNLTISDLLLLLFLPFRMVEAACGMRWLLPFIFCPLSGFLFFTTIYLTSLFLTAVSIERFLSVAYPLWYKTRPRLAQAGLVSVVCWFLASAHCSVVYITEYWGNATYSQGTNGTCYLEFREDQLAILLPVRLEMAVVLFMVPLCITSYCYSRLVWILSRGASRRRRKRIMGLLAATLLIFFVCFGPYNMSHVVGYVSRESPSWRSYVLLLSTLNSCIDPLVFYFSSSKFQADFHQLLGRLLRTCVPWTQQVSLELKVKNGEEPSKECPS
Protocol: With several compounds with improved properties in hand, we wished to investigate the suitability of the compounds as tools for in vivo studies in rodents. Because of the moderate potency and low solubility associated with this series, it has been presumed that they are poorly suited as in vivo tools.
HEK293 Flp-In T-Rex cells stably transfected with FFA3-eYFP receptors were incubated overnight with doxycycline to induce expression, then harvested, and cryopreserved. On the day of each experiment, cells were thawed and resuspended in stimulation buffer. Assays were carried out using a 384-well plate format with 3000 cells/well using the CisBio cAMP GS dynamic kit as per manufacturer’s protocol. Compounds were tested for the ability to inhibit 0.3 μM forskolin-induced cAMP production after co-incubation for 1 h. Reactions were measured using a PHERAstar FS plate reader (BMGLabtech, Aylesbury, UK).

in vivo = details: male, BALB/c, mouse
Protocol: The study was performed by Bienta (www.bienta.net). Study design, animal selection, handling, and treatment were all in accordance with the Enamine PK study protocols and Institutional Animal Care and Use Guidelines. Animal treatment and plasma samples preparation were conducted by the Animal Laboratory personnel at Enamine/Bienta. […] The animals were randomly assigned to the treatment groups before the pharmacokinetic study; all animals were fasted for 4 h before dosing. […] Each of the time point treatment group included four animals. There was also a control group of two animals. […] Dosing volumes of compounds or vehicle was 5 mL/kg. Mice were injected iv with 2,2,2-tribromoethanol at the dose of 150 mg/kg prior to drawing the blood. Blood collection was performed from the orbital sinus in microtainers containing K2EDTA. Animals were sacrificed by cervical dislocation after the blood sample collection. All samples were immediately processed, flash-frozen, and stored at −70 °C until subsequent analysis. […] After mixing by pipetting and centrifuging for 4 min at 6000 rpm, 0.5–1 μL of each supernatant was analyzed by HPLC-MS/MS on an API 3000 PE instrument.

[1] = biological target: T2, Cav1.2 (L-type) Human Calcium Ion Channel (Homo sapiens, UniProt Q13936); assay: Cav1.2 (L-type) calcium ion channel binding assay, Panlabs; details: 10 μM
T2 construct: Panlabs
T2 sequence (Q13936 whole entry): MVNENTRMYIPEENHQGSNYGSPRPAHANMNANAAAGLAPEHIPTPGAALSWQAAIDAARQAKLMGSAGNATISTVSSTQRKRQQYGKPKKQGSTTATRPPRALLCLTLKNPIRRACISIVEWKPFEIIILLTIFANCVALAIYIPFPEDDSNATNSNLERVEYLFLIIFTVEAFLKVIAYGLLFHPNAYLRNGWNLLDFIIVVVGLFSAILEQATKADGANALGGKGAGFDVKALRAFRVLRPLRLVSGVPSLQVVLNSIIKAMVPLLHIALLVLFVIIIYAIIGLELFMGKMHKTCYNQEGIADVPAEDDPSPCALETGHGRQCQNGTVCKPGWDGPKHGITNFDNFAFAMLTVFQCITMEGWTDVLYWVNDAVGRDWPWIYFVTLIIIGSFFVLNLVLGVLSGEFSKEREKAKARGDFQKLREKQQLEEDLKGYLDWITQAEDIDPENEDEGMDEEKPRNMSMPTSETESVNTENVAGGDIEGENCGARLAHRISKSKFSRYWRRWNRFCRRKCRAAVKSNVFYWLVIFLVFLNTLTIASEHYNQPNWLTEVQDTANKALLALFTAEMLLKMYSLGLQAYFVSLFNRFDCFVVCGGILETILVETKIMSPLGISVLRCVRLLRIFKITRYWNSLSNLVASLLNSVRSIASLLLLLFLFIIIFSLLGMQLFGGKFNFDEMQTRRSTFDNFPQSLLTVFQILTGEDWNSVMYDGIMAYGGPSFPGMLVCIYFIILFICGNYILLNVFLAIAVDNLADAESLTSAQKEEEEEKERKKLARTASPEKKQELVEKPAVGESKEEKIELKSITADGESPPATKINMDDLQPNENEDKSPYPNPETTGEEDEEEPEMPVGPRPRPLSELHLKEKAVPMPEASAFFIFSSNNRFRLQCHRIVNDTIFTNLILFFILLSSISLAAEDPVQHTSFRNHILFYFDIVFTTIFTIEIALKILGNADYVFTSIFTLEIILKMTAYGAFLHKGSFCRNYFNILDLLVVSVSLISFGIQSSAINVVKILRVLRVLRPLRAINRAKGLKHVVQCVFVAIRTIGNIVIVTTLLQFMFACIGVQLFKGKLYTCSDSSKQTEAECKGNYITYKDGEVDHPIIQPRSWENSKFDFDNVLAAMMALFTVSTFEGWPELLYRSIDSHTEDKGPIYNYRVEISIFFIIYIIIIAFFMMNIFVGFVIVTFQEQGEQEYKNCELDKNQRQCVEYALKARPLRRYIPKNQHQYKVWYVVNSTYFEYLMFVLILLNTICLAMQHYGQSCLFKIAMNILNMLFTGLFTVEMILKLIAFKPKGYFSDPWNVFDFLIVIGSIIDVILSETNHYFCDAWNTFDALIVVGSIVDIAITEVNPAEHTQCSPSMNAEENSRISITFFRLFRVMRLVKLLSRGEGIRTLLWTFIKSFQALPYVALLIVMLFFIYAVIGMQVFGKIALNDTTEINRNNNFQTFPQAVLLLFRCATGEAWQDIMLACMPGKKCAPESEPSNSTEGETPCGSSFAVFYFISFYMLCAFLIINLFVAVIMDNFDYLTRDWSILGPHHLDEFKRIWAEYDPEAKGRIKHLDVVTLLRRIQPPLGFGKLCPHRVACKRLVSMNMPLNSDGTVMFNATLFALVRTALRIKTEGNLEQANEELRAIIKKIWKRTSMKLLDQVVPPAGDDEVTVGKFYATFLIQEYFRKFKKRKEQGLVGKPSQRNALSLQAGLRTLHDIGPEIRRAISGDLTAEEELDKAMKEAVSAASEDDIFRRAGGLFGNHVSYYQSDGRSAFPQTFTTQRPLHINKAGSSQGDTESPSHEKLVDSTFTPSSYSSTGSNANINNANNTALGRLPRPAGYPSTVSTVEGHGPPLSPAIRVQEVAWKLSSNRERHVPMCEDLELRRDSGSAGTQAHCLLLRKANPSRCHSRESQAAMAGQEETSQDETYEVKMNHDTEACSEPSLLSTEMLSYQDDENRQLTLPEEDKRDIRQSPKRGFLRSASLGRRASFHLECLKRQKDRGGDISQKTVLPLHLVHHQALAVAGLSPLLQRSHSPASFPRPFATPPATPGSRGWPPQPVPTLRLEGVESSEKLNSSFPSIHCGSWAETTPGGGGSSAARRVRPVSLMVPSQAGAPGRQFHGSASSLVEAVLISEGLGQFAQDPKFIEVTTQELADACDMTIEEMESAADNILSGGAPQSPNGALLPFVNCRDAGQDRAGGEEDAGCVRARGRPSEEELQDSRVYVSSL
T2 sequence (Q08289 whole entry partner): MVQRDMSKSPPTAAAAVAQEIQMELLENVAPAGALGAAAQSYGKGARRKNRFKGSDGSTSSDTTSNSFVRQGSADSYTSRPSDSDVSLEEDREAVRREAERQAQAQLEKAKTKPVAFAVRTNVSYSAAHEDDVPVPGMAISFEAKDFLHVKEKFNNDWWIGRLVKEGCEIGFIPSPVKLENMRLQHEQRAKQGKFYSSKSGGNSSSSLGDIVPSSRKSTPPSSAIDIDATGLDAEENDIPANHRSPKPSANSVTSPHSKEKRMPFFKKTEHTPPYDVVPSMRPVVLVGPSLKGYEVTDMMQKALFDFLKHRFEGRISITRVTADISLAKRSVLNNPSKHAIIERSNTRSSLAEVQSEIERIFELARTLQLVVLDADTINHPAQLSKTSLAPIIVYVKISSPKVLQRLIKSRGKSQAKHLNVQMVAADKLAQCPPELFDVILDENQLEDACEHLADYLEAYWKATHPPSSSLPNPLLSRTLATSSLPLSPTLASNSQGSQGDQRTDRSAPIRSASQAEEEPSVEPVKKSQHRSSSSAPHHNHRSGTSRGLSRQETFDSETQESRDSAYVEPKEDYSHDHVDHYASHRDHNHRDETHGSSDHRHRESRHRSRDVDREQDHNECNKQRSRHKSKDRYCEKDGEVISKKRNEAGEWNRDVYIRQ
T2 sequence (P54289 25-946 partner limits assumed): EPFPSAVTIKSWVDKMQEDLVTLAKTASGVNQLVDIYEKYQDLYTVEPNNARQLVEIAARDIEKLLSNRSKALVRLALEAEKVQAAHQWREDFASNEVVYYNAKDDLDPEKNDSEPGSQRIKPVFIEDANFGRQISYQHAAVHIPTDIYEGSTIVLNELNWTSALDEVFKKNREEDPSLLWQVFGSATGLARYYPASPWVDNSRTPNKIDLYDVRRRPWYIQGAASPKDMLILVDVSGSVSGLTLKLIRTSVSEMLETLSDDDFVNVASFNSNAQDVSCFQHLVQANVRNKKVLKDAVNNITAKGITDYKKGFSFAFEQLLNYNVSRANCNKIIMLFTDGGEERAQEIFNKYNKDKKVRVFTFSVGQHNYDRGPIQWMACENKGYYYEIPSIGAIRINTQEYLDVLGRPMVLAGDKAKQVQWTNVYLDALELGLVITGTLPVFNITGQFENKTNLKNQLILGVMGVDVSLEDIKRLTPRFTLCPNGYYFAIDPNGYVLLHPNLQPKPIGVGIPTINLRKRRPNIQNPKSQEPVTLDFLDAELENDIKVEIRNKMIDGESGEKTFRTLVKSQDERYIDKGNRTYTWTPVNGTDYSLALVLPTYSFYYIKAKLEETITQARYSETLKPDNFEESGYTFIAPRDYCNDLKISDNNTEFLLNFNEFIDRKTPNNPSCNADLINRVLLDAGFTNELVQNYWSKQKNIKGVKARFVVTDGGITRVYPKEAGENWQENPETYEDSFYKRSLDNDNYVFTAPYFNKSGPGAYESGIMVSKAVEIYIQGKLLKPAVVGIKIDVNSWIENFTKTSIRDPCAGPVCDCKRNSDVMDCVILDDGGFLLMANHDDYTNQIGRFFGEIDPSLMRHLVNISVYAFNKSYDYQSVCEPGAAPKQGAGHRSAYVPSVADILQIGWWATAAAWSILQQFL
T2 sequence (P54289 947-1103 partner limits assumed): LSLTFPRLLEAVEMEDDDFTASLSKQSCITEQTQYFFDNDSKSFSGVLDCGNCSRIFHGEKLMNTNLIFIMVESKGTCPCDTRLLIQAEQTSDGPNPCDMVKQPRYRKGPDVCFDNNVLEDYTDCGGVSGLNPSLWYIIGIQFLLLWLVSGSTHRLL
Protocol: Counterscreen data on 1, 16, 57 and 63
Cav1.2 (L-type) Human Calcium Ion Channel Binding -20% 13% 12% 1%
(Antagonist Radioligand) Assay, Panlabs, 10 µM

human FFA4 = biological target: T3, human FFA4 (Homo sapiens, UniProt Q5NUL3); assay: FFA4 counterscreen, arrestin BRET assay; assay type: cell-based; details: 10 μM
T3 construct: expressed in transfected cells; host or cells: HEK293T, transient co-transfection
T3 sequence (Q5NUL3 1-361): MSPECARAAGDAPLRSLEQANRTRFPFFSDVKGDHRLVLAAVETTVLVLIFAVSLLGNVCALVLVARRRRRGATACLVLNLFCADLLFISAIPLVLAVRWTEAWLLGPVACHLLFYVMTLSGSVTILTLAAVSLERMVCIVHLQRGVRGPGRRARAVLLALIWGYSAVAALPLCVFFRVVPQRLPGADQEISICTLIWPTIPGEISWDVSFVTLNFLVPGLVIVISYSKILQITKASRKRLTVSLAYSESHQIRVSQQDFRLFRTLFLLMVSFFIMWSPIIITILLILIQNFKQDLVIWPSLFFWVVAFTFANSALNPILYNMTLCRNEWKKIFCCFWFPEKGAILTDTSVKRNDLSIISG
Protocol: Counter screening against FFA1, FFA2 , FF A4 and GPR84
Counter screening against FFA1 and FFA4 was carried out using a modified version of a previously described bioluminescence resonance energy transfer (BRET) designed to assess recruitment of b-ar r estin-2 to each receptor.2 Briefly, HEK293T cells were co-transfected with plasmids en coding either human FFA1 or human FFA4 tagged at their C -termini with eYFP and with a plasmid encoding b-ar r estin-2 tagged at its N-terminal with Nanoluciferase. 24 h post transfection cells were seeded into black with clear bottom 96-well plates that had been coated with poly-D-lysine. Cells were then cultured a further 24 h prior to experiments. Cells were then washed twice with Hank’s Balanced salt solution supplemented with 10 mM HEPES (HBSSH) then incubated at 37 °C in HBSSH for 30 min prior to running the assay. The Nluc substrate, coelenterazine h was then added to a f inal concentration of 5 µM and cells were incubated at 37 °C for 10 min prior to adding test agonists. Following a further 5 min incubation, luminescent emission at 475 nm and 535 nm was measured using a Pherastar FS reader (BMG Labtech, Aylesbury, UK) pla te reader set for bottom plate optics. The BRET ratio was then calculated as 535/475 emissions and all BRET ratio values were normalized against the maxima l BRET ratio obtained using reference agonists for the respective receptors (TUG -891 for FFA4, TUG-770 for FFA1). For antagonism studies, the same protocol was used, however the antagonist was added 15 min prior to the addition of an EC 80 concentration of the reference agonist for each receptor. […]

Which “loss of potency from human to rodent species” value (mFFA3) does the source give for `CC1=C(C(=O)Nc2ccccc2C)C(c2ccco2)C2=C(CCCC2=O)N1` (centres unmarked) [Compound 1, 4-(Furan-2-yl)-2-methyl-5-oxo-N-(o-tolyl)-1,4,5,6,7,8-hexahydroquinoline-3-carboxamide, reference compound] here?
The value was 3–10 fold.

And the “cAMP pEC50 (mFFA3)” value (mFFA3)?
Its value is 5.42 ± 0.04.

And the Vd at 24 h (in vivo; iv, 5 mg/kg)?
The Vd at 24 h was 0.759 L/kg.

And the clearance at 24 h (in vivo; iv, 5 mg/kg)?
Its clearance at 24 h is 8.45 mL/min/kg.

What about the half-life at 24 h (in vivo; iv, 5 mg/kg) of the same compound?
Its half-life at 24 h is 62.2 min.

What about the AUC(0-inf) at 24 h (in vivo; po, 10 mg/kg) of the same compound?
The AUC(0-inf) at 24 h was 14400 ng·h/mL.

What about the Cmax at 24 h (in vivo; po, 10 mg/kg) of the same compound?
The Cmax at 24 h was 7470 ng/mL.

And the Tmax at 24 h (in vivo; po, 10 mg/kg)?
Its Tmax at 24 h is 15 min.

And the bioavailability at 24 h (in vivo; po, 10 mg/kg)?
The bioavailability at 24 h was 73%.

What about the half-life at 24 h (in vivo; po, 10 mg/kg) of the same compound?
Its half-life at 24 h is 89.7 min.

And the “Cav1.2 (L-type) binding (antagonist radioligand)” value (“Cav1.2 (L-type) binding” below) [1]?
The value was -20%.

What about the “activity at L-type calcium ion channels” value [1] of the same compound?
The value was “No significant activity”.

What about the “activity at FFA4” value (human FFA4) of the same compound?
Its value is “No significant activity”.

Which results are given for `CC1=C(C(=O)Nc2cc(Cl)ccc2Cl)C(c2ccco2)C2=C(CCCC2=O)N1` (centres unmarked) [Compound 16, reference compound]?
loss of potency from human to rodent species (mFFA3): 3–10 fold; cAMP pEC50 (mFFA3) (mFFA3): 5.88 ± 0.05; Vd at 24 h (in vivo; iv, 5 mg/kg): 0.629 L/kg; clearance at 24 h (in vivo; iv, 5 mg/kg): 19.6 mL/min/kg; half-life (in vivo; iv, 5 mg/kg): 20 min; half-life at 24 h (in vivo; iv, 5 mg/kg): 22.3 min; AUC(0-inf) at 24 h (in vivo; po, 10 mg/kg): 7050 ng·h/mL; Cmax at 24 h (in vivo; po, 10 mg/kg): 5740 ng/mL; Tmax at 24 h (in vivo; po, 10 mg/kg): 30 min; bioavailability at 24 h (in vivo; po, 10 mg/kg): 88%; half-life at 24 h (in vivo; po, 10 mg/kg): 60.8 min; Cav1.2 (L-type) binding (antagonist radioligand) [1]: 13%; activity at L-type calcium ion channels [1]: No significant activity; activity at FFA4 (human FFA4): No significant activity

Which Vd at 24 h (in vivo; iv, 5 mg/kg) does the source give for `CCCC1C(C(=O)Nc2cc(Cl)ccc2Cl)=C(C)NC2=C1C(=O)CCC2` (centres unmarked) [Compound 57, N-(2,5-Dichlorophenyl)-2-methyl-5-oxo-4-propyl-1,4,5,6,7,8-hexahydroquinoline-3-carboxamide] here?
Its Vd at 24 h is 1.15 L/kg.

And the clearance at 24 h (in vivo; iv, 5 mg/kg)?
Its clearance at 24 h is 70.3 mL/min/kg.

What about the half-life at 24 h (in vivo; iv, 5 mg/kg) of the same compound?
The half-life at 24 h was 11.4 min.

And the AUC(0-inf) at 24 h (in vivo; po, 10 mg/kg)?
Its AUC(0-inf) at 24 h is 563 ng·h/mL.

What about the Cmax at 24 h (in vivo; po, 10 mg/kg) of the same compound?
Its Cmax at 24 h is 561 ng/mL.

What about the Tmax at 24 h (in vivo; po, 10 mg/kg) of the same compound?
Its Tmax at 24 h is 30 min.

And the bioavailability at 24 h (in vivo; po, 10 mg/kg)?
The bioavailability at 24 h was 36%.

What about the half-life at 24 h (in vivo; po, 10 mg/kg) of the same compound?
The half-life at 24 h was 63.5 min.

And the “Cav1.2 (L-type) binding” value [1]?
The value was 12%.

What about the “activity at L-type calcium ion channels” value [1] of the same compound?
Its value is “No significant activity”.

And the “activity at FFA4” value (human FFA4)?
Its value is “No significant activity”.

With `CC1=C(C(=O)Nc2cc(Cl)ccc2Cl)C(C2CCCC2)C2=C(CCCC2=O)N1` (centres unmarked) [Compound 63, 4-Cyclopentyl-N-(2,5-dichlorophenyl)-2-methyl-5-oxo-1,4,5,6,7,8-hexahydroquinoline-3-carboxamide] as the compound, how does the “cAMP pEC50 (mFFA3)” value (mFFA3) read?
The value was 5.96 ± 0.04.

What about the Vd at 24 h (in vivo; iv, 5 mg/kg) of the same compound?
Its Vd at 24 h is 1.11 L/kg.

And the clearance at 24 h (in vivo; iv, 5 mg/kg)?
Its clearance at 24 h is 20.3 mL/min/kg.

And the half-life at 24 h (in vivo; iv, 5 mg/kg)?
Its half-life at 24 h is 37.8 min.

And the AUC(0-inf) at 24 h (in vivo; po, 10 mg/kg)?
Its AUC(0-inf) at 24 h is 5420 ng·h/mL.

What about the Cmax at 24 h (in vivo; po, 10 mg/kg) of the same compound?
Its Cmax at 24 h is 3800 ng/mL.

What about the Tmax at 24 h (in vivo; po, 10 mg/kg) of the same compound?
The Tmax at 24 h was 15 min.

And the bioavailability at 24 h (in vivo; po, 10 mg/kg)?
Its bioavailability at 24 h is 66%.

What about the half-life at 24 h (in vivo; po, 10 mg/kg) of the same compound?
Its half-life at 24 h is 51.8 min.

And the “Cav1.2 (L-type) binding” value [1]?
The value was 1%.

And the “activity at L-type calcium ion channels” value [1]?
The value was “No significant activity”.

What about the “activity at FFA4” value (human FFA4) of the same compound?
The value was “No significant activity”.
